# Values quoted from earlier work in patent publication US20090162442A1, “MULTI-PHASIC, NANO-STRUCTURED COMPOSITIONS CONTAINING A COMBINATION OF A FIBRATE AND A STATIN” (priority 2007, published 2009).
# [1] = American Family Physician, 2002, Vol. 65, No. 6, page 1173
Compound,absorbed (rate of absorption) [1],bioavailable [1],bioavailability under fed conditions (food interaction)
CC(C)n1c(/C=C/C(O)CC(O)CC(=O)O)c(-c2ccc(F)cc2)c2ccccc21 (centres unmarked) [fluvastatin],98%,approximately 24%,decrease
CC[C@H](C)C(=O)O[C@H]1C[C@@H](C)C=C2C=C[C@H](C)[C@H](CC[C@@H]3C[C@@H](O)CC(=O)O3)[C@H]21 [lovastatin],about 30%,,
CC[C@H](C)C(=O)O[C@H]1C[C@H](O)C=C2C=C[C@H](C)[C@H](CC[C@@H](O)C[C@@H](O)CC(=O)O)[C@H]21 [pravastatin],,,decrease
